Among the data in patent US20140128380A1, “METHODS OF MODULATING THE ACTIVITY OF THE MC1 RECEPTOR AND TREATMENT OF CONDITIONS RELATED TO THIS RECEPTOR” (Mimetica Pty Ltd, priority 2009, published 2014) are IC50 values, retold here.

For the test, the target named is T1, human MC1R (hMC1R) (Homo sapiens, UniProt Q01726).
T1 construct: purchased Perkin Elmer ES-195-M400UA
T1 sequence (Q01726 whole entry): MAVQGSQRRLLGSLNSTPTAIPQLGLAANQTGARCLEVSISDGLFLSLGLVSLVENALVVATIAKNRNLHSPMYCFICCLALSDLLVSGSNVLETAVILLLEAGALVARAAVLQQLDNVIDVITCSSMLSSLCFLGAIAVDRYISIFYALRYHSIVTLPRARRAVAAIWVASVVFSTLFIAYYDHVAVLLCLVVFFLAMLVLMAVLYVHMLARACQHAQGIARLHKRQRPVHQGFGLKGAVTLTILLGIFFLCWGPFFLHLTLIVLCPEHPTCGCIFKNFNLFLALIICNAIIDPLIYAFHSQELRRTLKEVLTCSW
The test can be described thus: Human MC1R radioligand binding assay (displacement of 125I-labeled NDP-MSH, Perkin Elmer hMC1R membranes). The conditions noted are these: displacement of [125I]NDP-MSH, compounds tested as trifluoroacetate or hydrochloride salts or free base. The method, then: Assessments of compound binding to human MC1R (hMC1R)) by displacement of an ^125I-labeled NDP-MSH receptor ligand peptide were performed essentially as described in the data sheets produced by Perkin Elmer to accompany their frozen hMC1R membranes (Perkin Elmer catalog number ES-195-M400UA).
[^125I] NDP-MSH: radiolabeled in house and purified by HPLC:
Na ^125I (0.5 mCi, 17.4 Ci/mg) was added to 50 μL sodium phosphate (50 mM, pH 7.4) in an eppendorf tube precoated with IODOGEN. After incubation for 10 mins the phosphate buffer containing the iodine was added to NDP-MSH (10 ul at 1 mg/mL) in a separate eppendorf tube. This was incubated for a further 10 mins. The iodinated NDP-MSH was purified by HPLC on a Zorbax SB 300 column using solvent A: 0.05% TFA and solvent B: 90% acetonitrile 0.045% TFA with a linear gradient, 0-67% B over 60 mins.
Perkin Elmer frozen hMC1 membranes: catalog number ES-195-M400UA, 0.4 mL/vial; 400 microassays/vial, 0.78 mg/mL protein concentration
Vials of frozen membranes were thawed rapidly immediately before use, diluted with binding buffer and vortexed. Resuspended membranes were kept on ice until they were added to the wells of the plate.
Assays were performed in 96 well polypropylene plates. […] This was incubated for 1 hr at 37° C.
A general note: In a radioligand displacement assay an active substance lowers the binding of a labelled ligand.
In general, IC50 refers to the concentration at which inhibition is half-maximal. For `O=C(/C=C/c1ccc(Cl)cc1)NC[C@@H]1CCN(CC(c2ccccc2)c2ccccc2)C(=O)[C@H](CCN2CCOCC2)N1` [Compound 159, (E)-3-(4-chlorophenyl)-N-(((3S,5S)-1-(2,2-diphenylethyl)-3-(2-morpholinoethyl)-2-oxo-1,4-diazepan-5-yl)methyl)acrylamide], the IC50 was less than 10 µM.
As for `CC(C)c1ccc(/C=C/C(=O)NC[C@@H]2CCN(CC(c3ccccc3)c3ccccc3)C(=O)[C@H](CCN)N2)cc1` [Compound 156, (E)-N-(((3S,5S)-3-(2-aminoethyl)-1-(2,2-diphenylethyl)-2-oxo-1,4-diazepan-5-yl)methyl)-3-(4-isopropylphenyl)acrylamide], the figure is less than 10 µM.
As for `CNC(=O)[C@H](Cc1ccc2ccccc2c1)N1CC[C@H](CNC(=O)Cc2ccc(Cl)cc2)N[C@@H](CCCNC(=N)N)C1=O` [Compound 167, (S)-2-((3S,5R)-5-((2-(4-chlorophenyl)acetamido)methyl)-3-(3-guanidinopropyl)-2-oxo-1,4-diazepan-1-yl)-N-methyl-3-(naphthalen-2-yl)propanamide], the figure is less than 10 µM; as for `NCCC[C@@H]1N[C@H](CNC(=O)c2cc(-c3ccc(Cl)cc3)on2)CCN(CC(c2ccccc2)c2ccccc2)C1=O` [Compound 129], less than 10 µM; as for `CC[C@H](CN1CC[C@H](CNC(=O)c2ccc3cc(Cl)ccc3c2)N[C@H](CC(C)(C)N2CCCCC2)C1=O)c1ccccc1` [Compound 172, 6-chloro-N-(((3R,5R)-3-(2-methyl-2-(piperidin-1-yl)propyl)-2-oxo-1-((S)-2-phenylbutyl)-1,4-diazepan-5-yl)methyl)-2-naphthamide], less than 10 µM.
For the compound `NCCC[C@@H]1N[C@H](CNC(=O)c2ccc3ccccc3c2)CCN(CC2(c3ccccc3)CCCCC2)C1=O` [Compound 144, N-(((3S,5S)-3-(3-aminopropyl)-2-oxo-1-((1-phenylcyclohexyl)methyl)-1,4-diazepan-5-yl)methyl)-2-naphthamide], the IC50 is less than 10 µM.
As for `O=C(/C=C/c1ccc(Cl)cc1)NC[C@@H]1CCN(Cc2cc(Cl)cc(Cl)c2)C(=O)[C@H](CN2CCCCC2)N1` [Compound 152, (E)-3-(4-chlorophenyl)-N-(((3S,5S)-1-(3,5-dichlorobenzyl)-2-oxo-3-(piperidin-1-ylmethyl)-1,4-diazepan-5-yl)methyl)acrylamide], the figure is less than 10 µM; as for `N=C(N)NCCC[C@@H]1N[C@H](CNC(=O)c2ccc3ccccc3c2)CCN(c2ccc3ccccc3c2)C1=O` [Compound 125, N-(((3S,5S)-3-(3-guanidinopropyl)-1-(naphthalen-2-yl)-2-oxo-1,4-diazepan-5-yl)methyl)-2-naphthamide], less than 10 µM; as for `NCC[C@@H]1N[C@H](CNC(=O)/C=C/c2ccc(Cl)cc2)CCN(Cc2cc(Cl)cc(Cl)c2)C1=O` [Compound 141, (E)-N-(((3S,5S)-3-(2-aminoethyl)-1-(3,5-dichlorobenzyl)-2-oxo-1,4-diazepan-5-yl)methyl)-3-(4-chlorophenyl)acrylamide], less than 10 µM.
In the case of `O=C(/C=C/c1ccc(Cl)cc1)NC[C@@H]1CCN(CC(c2ccccc2)c2ccccc2)C(=O)[C@H](CN2CCCCC2)N1` [Compound 134, (E)-3-(4-chlorophenyl)-N-(((3S,5S)-1-(2,2-diphenylethyl)-2-oxo-3-(piperidin-1-ylmethyl)-1,4-diazepan-5-yl)methyl)acrylamide], the IC50 was less than 10 µM.
In the case of “(E)-N-(((3S,5S)-3-(aminomethyl)-1-(3,5-dichlorobenzyl)-2-oxo-1,4-diazepan-5-yl)methyl)-3-(4-chlorophenyl)acrylamide [Compound 150]”, the IC50 is less than 10 µM.
As for `CNC(=O)[C@H](Cc1ccc2ccccc2c1)N1CC[C@H](CNC(=O)[C@H](N)Cc2ccc(F)cc2)N[C@@H](CCCNC(=N)N)C1=O` [Compound 168, (R)-2-amino-3-(4-fluorophenyl)-N-(((3S,5R)-3-(3-guanidinopropyl)-1-((S)-1-(methylamino)-3-(naphthalen-2-yl)-1-oxopropan-2-yl)-2-oxo-1,4-diazepan-5-yl)methyl)propanamide], the figure is less than 10 µM.
As for `N=C(N)NCCC[C@@H]1N[C@H](CNC(=O)c2ccc3ccccc3c2)CCN(Cc2cc(Cl)cc(Cl)c2)C1=O` [Compound 100, N-(((3S,5S)-1-(3,5-dichlorobenzyl)-3-(3-guanidinopropyl)-2-oxo-1,4-diazepan-5-yl)methyl)-2-naphthamide], the figure is less than 10 µM; as for `CNC(=O)[C@H](Cc1ccc2ccccc2c1)N1CC[C@H](CNC(=O)[C@@H](N)Cc2ccc(F)cc2)N[C@@H](CCCNC(=N)N)C1=O` [Compound 166, (S)-2-amino-3-(4-fluorophenyl)-N-(((3S,5R)-3-(3-guanidinopropyl)-1-((S)-1-(methylamino)-3-(naphthalen-2-yl)-1-oxopropan-2-yl)-2-oxo-1,4-diazepan-5-yl)methyl)propanamide], less than 10 µM; as for `O=C(NC[C@@H]1CCN(CC(c2ccccc2)c2ccccc2)C(=O)[C@H](CCN2CCCCC2)N1)c1ccc2cc(Cl)ccc2c1` [Compound 154, 6-chloro-N-(((3S,5S)-1-(2,2-diphenylethyl)-2-oxo-3-(2-(piperidin-1-yl)ethyl)-1,4-diazepan-5-yl)methyl)-2-naphthamide], less than 10 µM.
As for `NCC[C@@H]1N[C@H](CNC(=O)c2ccc(Cl)c(Cl)c2)CCN(CC(c2ccccc2)c2ccccc2)C1=O` [Compound 135, N-(((3S,5S)-3-(2-aminoethyl)-1-(2,2-diphenylethyl)-2-oxo-1,4-diazepan-5-yl)methyl)-3,4-dichlorobenzamide], the figure is less than 10 µM; as for `CC(C)(NC(=O)/C=C/c1ccc(Cl)cc1)[C@@H]1CCN(CC(c2ccccc2)c2ccccc2)C(=O)[C@H](CCN2CCCCC2)N1` [Compound 165, (E)-3-(4-chlorophenyl)-N-(2-((3S,5S)-1-(2,2-diphenylethyl)-2-oxo-3-(2-(piperidin-1-yl)ethyl)-1,4-diazepan-5-yl)propan-2-yl)acrylamide], less than 10 µM; as for `CN(C)C(=N)NCCC[C@@H]1N[C@H](CNC(=O)c2ccc3ccccc3c2)CCN(CC(c2ccccc2)c2ccccc2)C1=O` [Compound 117, N-(((3S,5S)-3-(3-(3,3-dimethylguanidino)propyl)-1-(2,2-diphenylethyl)-2-oxo-1,4-diazepan-5-yl)methyl)-2-naphthamide], less than 10 µM.
As for `NCCC[C@@H]1N[C@H](CNC(=O)c2ccc3cc(F)ccc3c2)CCN(CC(c2ccccc2)c2ccccc2)C1=O` [Compound 122, N-(((3S,5S)-3-(3-aminopropyl)-1-(2,2-diphenylethyl)-2-oxo-1,4-diazepan-5-yl)methyl)-6-fluoro-2-naphthamide], the IC50 was less than 10 µM.
With `O=C(/C=C/c1ccc(Cl)cc1)NC[C@@H]1CCN(CC(c2ccccc2)c2ccccc2)C(=O)[C@H](CCN2CCCCC2)N1` [Compound 101, (E)-3-(4-chlorophenyl)-N-(((3S,5S)-1-(2,2-diphenylethyl)-2-oxo-3-(2-(piperidin-1-yl)ethyl)-1,4-diazepan-5-yl)methyl)acrylamide], the IC50 is less than 10 µM.
Turning to `N=C(N)NCCC[C@@H]1N[C@H](CNC(=O)c2ccc3ccccc3c2)CCN(CC2c3ccccc3-c3ccccc32)C1=O` [Compound 126, N-(((3S,5S)-1-((9H-fluoren-9-yl)methyl)-3-(3-guanidinopropyl)-2-oxo-1,4-diazepan-5-yl)methyl)-2-naphthamide], the IC50 was less than 10 µM.
As for `Cc1ccc(/C=C/C(=O)NC[C@@H]2CCN(CC(c3ccccc3)c3ccccc3)C(=O)[C@H](CCN)N2)c(C)c1` [Compound 157, (E)-N-(((3S,5S)-3-(2-aminoethyl)-1-(2,2-diphenylethyl)-2-oxo-1,4-diazepan-5-yl)methyl)-3-(2,4-dimethylphenyl)acrylamide], the figure is less than 10 µM; as for `CC[C@H](CN1CC[C@@H](CNC(=O)c2ccc(-c3ccccc3)cc2)N[C@@H](CCN2CCCCC2)C1=O)c1ccccc1` [Compound 177, N-(((3S,5S)-2-oxo-1-((S)-2-phenylbutyl)-3-(2-(piperidin-1-yl)ethyl)-1,4-diazepan-5-yl)methyl)biphenyl-4-carboxamide], less than 10 µM; as for `CC(C)c1ccc(/C=C/C(=O)NC[C@@H]2CCN(CC(c3ccccc3)c3ccccc3)C(=O)[C@H](CCN3CCCCC3)N2)cc1` [Compound 155, (E)-N-(((3S,5S)-1-(2,2-diphenylethyl)-2-oxo-3-(2-(piperidin-1-yl)ethyl)-1,4-diazepan-5-yl)methyl)-3-(4-isopropylphenyl)acrylamide], less than 10 µM.
As for `CC[C@H](CN1CC[C@@H](CNC(=O)c2ccc3cc(Cl)ccc3c2)N[C@@H](CCN(C(C)=O)C(C)C)C1=O)c1ccccc1` [Compound 180, 6-chloro-N-(((3S,5S)-3-(2-(N-isopropylacetamido)ethyl)-2-oxo-1-((S)-2-phenylbutyl)-1,4-diazepan-5-yl)methyl)-2-naphthamide], the figure is less than 10 µM; as for `CCC(CC)CN1CC[C@@H](CNC(=O)/C=C/c2ccc(Cl)cc2)N[C@@H](CCN)C1=O` [Compound 146, (E)-N-(((3S,5S)-3-(2-aminoethyl)-1-(2-ethylbutyl)-2-oxo-1,4-diazepan-5-yl)methyl)-3-(4-chlorophenyl)acrylamide], less than 10 µM.
